Measurements published in US12171732B2, “Compositions and use of N-chlorotaurine for treatment and prevention of respiratory infections” (priority 2021, dated 2024).
Like-named read-outs stand apart in the source and are kept apart here.

Key:
[1] = test system: SARS-CoV-2; format: in vivo, human; conditions: Example 3 patient, Day 5, first 1% NCT nasal spray, 2 puffs in each nostril
[2] = test system: SARS-CoV-2 B.1.1.7 (Alpha); format: cell-based; conditions: 1% NCT, 37° C.
[3] = test system: SARS-CoV-2 B.1.351 (Beta); format: cell-based; conditions: 1% NCT, 37° C.

SMILES: O=S(=O)(O)CCNCl [NCT, N-chlorotaurine]
- time until nasal passages cleared and nasal secretion dried up [1]: ≤ 30 min
- reduction of infected cells ([2]; after 1 min): 42-54%
- reduction of infected cells ([2]; after 5 min): 50-71%
- reduction of infected cells ([2]; after 10 min): 62-99%
- reduction of infected cells ([2]; after 20 min): 99-100%
- reduction of infected cells ([2]; after 30 min): 100%
- reduction of infected cells ([3]; after 1 min (not significant, p=0.313)): 0-48%
- reduction of infected cells ([3]; after 5 min): 54-72%
- reduction of infected cells ([3]; after 10 min): 82-97%
- reduction of infected cells ([3]; after 20 min): 99-100%
- reduction of infected cells ([3]; after 30 min): 100%
